The source made the active and inactive calls. Some results are limits rather than exact numbers.

The text below walks through data of ChEMBL document CHEMBL1201862, “PubChem BioAssay data set” (2004).

Assay [1] addresses SUMO-activating enzyme (Homo sapiens, UniProt Q9UBT2). As to the kind of experiment: SUMOylation inhibitor hit validation, confirmation, SUMOylation inhibitor project, biochemical, AlphaScreen (AID 2018). In kind it is functional. In general terms: Alpha assays give light when donor and acceptor beads are brought close together.
Assay [2] can be described thus: cells. The note with it: A549.
The target of assay [3] is Major prion protein (Homo sapiens, UniProt P04156). The assay is classed as functional, cell-based.
Assay [4] in a line: cells.
The target in assay [5] is Paired box protein Pax-8 (Homo sapiens, UniProt Q06710). As to the kind of experiment: inhibitors of PAX8-driven TPO luciferase reporter, dose response, RMG-I cells, cherry-pick (AID 687027).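 Further: luciferase reporter driven by Pax8 target thyroperoxidase promoter measured by SteadyGlo luminescence.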 The assay is classed as functional, cell-based. (In general: Reporter assays use an easily measured gene product as a stand-in for the process of interest.)
A short description of assay [6]: IOSE-T80 ovarian epithelial cell cytotoxicity, dose response, cytotoxicity control for PAX8 inhibitor project, plate reader, dry powder samples (AID 743045). In kind it is functional, cell-based.
Assay [7] is described as follows: inhibitors of CMV-promoter luciferase reporter, dose response, counter-screen for Pax8 inhibitor project, cell-based, HEK293, luminescence, dry powder (AID 743020). In kind it is functional.
A short description of assay [8]: NIH:OVCAR-3 ovarian cancer cell cytotoxicity, dose response, PAX8 inhibitor project, plate reader, dry powder samples (AID 743044). The assay is classed as functional, cell-based.
Assay [9] can be described thus: cytotoxicity in OVCAR8 ovarian cancer cells, dose response, PAX8 project, cell-based, plate reader, dry powder samples (AID 743197). The assay is classed as functional. As to conditions: OVCAR-8.
A short description of assay [10]: HEK293 cell cytotoxicity, dose response, cytotoxicity control, ATP luminescence, dry powder, Set6 (AID 743142). In kind it is functional, cell-based.
The nature of assay [11]: A549 cell cytotoxicity, dose response, cytotoxicity control, CellTiter-Glo luminescence, dry powder, set 3 (AID 743146). The assay is classed as functional, cell-based.
The target of assay [12] is Photoreceptor-specific nuclear receptor (Homo sapiens, UniProt Q9Y5X4). In kind it is functional, cell-based.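 Further: CHO-S cells with Gal4-NCOR and VP16-NR2E3 two-hybrid luciferase reporter.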
The nature of assay [13]: HEK293 cell cytotoxicity, dose response, cytotoxicity control, cherry-picks, set 5 (AID 1053117). In kind it is functional, cell-based.
The nature of assay [14]: A549 cell cytotoxicity, dose response, cytotoxicity control, cherry-picks, 26 µM top dose (AID 1053119). In kind it is functional, cell-based.
Assay [15] is described as follows: inhibitors of fibronectin matrix deposition, dose response, AH1F cells, Alexa488-FN fluorescence, cherry-picks (AID 1035475). In kind it is functional, cell-based.
For assay [16], the system named is Streptococcus sp. 'group A'. The assay is described as follows: growth inhibition of control SK(-) GAS strain, dose response, counter-screen for streptokinase expression inhibitor project, luminescence, kanamycin, BacTiterGlo, confirmation (AID 1900). The assay is classed as functional, organism-based. On the technique in general: Counterscreens check selectivity or assay interference.

Assay [17] deals with T1, Streptokinase A (Streptococcus pyogenes serotype M1, UniProt P10520).
T1 sequence (P10520 whole entry): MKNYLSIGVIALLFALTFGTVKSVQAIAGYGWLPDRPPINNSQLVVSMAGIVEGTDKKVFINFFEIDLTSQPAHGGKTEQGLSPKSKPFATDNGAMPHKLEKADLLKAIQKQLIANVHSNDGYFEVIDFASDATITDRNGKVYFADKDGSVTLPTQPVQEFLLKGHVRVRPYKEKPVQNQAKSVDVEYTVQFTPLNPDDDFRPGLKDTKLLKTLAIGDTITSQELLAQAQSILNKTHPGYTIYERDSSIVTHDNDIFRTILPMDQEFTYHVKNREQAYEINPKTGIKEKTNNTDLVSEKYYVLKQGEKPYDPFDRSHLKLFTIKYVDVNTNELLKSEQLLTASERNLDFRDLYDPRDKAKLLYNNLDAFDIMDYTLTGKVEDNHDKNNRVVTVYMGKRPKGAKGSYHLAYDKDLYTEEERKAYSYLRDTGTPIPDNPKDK
As to the kind of experiment: S. pyogenes streptokinase expression inhibitors, potency, dose response, plasminogen activation absorbance, OD405 (AID 1914).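 Further: secreted streptokinase activity via plasminogen activation per viability signal from cell pellet.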 The assay is classed as functional, Streptococcus pyogenes M1 GAS.

Assay [18] has as its system Streptococcus. As to the kind of experiment: Group A Streptococcus viability loss, dose response, counter-screen for streptokinase expression inhibitor project, luminescence, BacTiterGlo (AID 1915).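 Further: potency for reduction of bacterial viability or growth.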 In kind it is functional, organism-based.
The nature of assay [19]: cells. As to conditions: HEK293.
The target of assay [20] is Metabotropic glutamate receptor 5 (Rattus norvegicus, UniProt P31424). As to the kind of experiment: Identification of a glycine sulfonamide based non-MPEP site positive allosteric potentiator (PAM) of mGlu5 (calcium_assay). In kind it is functional.
Assay [21] can be described thus: HepG2 cell cytotoxicity, dose response, cytotoxicity control, ATP luminescence, cherry-pick, activator set 2 (AID 1053143). In kind it is functional, cell-based.
Assay [22] can be described thus: Counterscreen for […] of the human trace amine associated receptor 1 (TAAR1): Fluorescence-based cell-based high throughput dose response assay to identify nonselective Ga16 agonists. The assay is classed as functional.
Assay [23] concerns the target T2, Trace amine-associated receptor 1 (Homo sapiens, UniProt Q96RJ0).
T2 sequence (Q96RJ0 whole entry): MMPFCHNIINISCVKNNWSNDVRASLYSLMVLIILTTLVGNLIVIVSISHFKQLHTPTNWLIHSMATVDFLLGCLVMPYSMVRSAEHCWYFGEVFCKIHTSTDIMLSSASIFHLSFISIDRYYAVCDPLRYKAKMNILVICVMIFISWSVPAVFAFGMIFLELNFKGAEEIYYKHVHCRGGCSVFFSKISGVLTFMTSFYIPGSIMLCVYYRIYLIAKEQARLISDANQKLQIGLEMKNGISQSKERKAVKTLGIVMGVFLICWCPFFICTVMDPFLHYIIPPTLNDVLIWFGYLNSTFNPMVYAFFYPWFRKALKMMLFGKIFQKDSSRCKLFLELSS
As to the kind of experiment: Fluorescence-based cell-based high throughput dose response assay to identify antagonists of the human trace amine associated receptor 1 (TAAR1). In kind it is functional.

A short description of assay [24]: Counterscreen for antagonists of the human trace amine associated receptor 1 (hTAAR1): Fluorescence-based cell-based high throughput dose response assay to identify nonselective Ga16 antagonists. In kind it is functional.
Assay [25] addresses T2, Trace amine-associated receptor 1. The assay is described as follows: Counterscreen for antagonists of the human trace amine associated receptor 1 (hTAAR1): Fluorescence-based cell-based high throughput dose response assay to identify TAAR1 Agonists. In kind it is functional.
The nature of assay [26]: A Cell-Based Confirmatory Screen for Compounds that Inhibit VEEV, TC-83 (8). In kind it is functional.
In assay [27] the target is Galanin receptor type 3 (Homo sapiens, UniProt O60755). As to the kind of experiment: Fluorescence-based cell-based primary high throughput dose response assay to identify antagonists of the Galanin Receptor 3 (GalR3). In kind it is functional.
The nature of assay [28]: cells. In kind it is functional, cell-based. The note with it: HEK-CNG.
Assay [29] addresses COUP transcription factor 2 (Homo sapiens, UniProt P24468). As to the kind of experiment: Luminescence-based cell-based high throughput dose response assay to identify inhibitors of COUP-TFII (NR2F2). The assay is classed as functional.
In assay [30] the target is Metabotropic glutamate receptor 3 (Rattus norvegicus, UniProt P31422). The assay is described as follows: mGlu3 NAM potency via calcium readout, dose response, mGlu3 NAM project, TREx293 cells, Galpha15, calcium flux (AID 651840). In kind it is functional.
Assay [31] has as its target Kallikrein-7 (Homo sapiens, UniProt P49862). As to the kind of experiment: Fluorescence Intensity-based biochemical primary high throughput dose response assay to identify activators of kallikrein-7 (K7) zymogen.
Assay [32] concerns the target Muscarinic acetylcholine receptor M5 (Homo sapiens, UniProt P08912). As to the kind of experiment: M5 muscarinic receptor antagonist potency, dose response, cell-based, CHO-K1 hM5, Fluo-4 calcium flux, ACh EC80 (AID 743110). In kind it is functional.
Assay [33] deals with T3, Corticotropin-releasing factor receptor 2/Corticotropin-releasing factor-binding protein (Homo sapiens, UniProt P24387+Q13324).
T3 sequence (Q13324 whole entry): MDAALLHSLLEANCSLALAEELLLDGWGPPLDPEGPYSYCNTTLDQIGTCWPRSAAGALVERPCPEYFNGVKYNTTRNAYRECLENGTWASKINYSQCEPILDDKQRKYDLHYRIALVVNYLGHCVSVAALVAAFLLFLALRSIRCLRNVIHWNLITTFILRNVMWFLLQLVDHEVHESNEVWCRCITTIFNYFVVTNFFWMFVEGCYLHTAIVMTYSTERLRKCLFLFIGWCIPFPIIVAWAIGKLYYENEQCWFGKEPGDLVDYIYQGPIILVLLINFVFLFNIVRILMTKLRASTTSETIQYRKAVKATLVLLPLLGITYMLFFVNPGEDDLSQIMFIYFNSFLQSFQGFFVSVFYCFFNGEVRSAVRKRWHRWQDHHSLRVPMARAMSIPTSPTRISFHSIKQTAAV
T3 sequence (P24387 whole entry): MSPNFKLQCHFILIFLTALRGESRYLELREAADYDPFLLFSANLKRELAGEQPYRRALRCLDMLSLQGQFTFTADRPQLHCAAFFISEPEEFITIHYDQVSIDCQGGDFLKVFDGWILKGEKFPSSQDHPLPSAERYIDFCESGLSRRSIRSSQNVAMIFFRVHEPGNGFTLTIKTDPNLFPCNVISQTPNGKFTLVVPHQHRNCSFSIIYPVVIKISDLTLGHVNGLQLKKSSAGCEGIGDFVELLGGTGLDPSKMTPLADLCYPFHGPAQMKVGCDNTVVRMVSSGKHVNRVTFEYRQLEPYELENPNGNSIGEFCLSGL
As to the kind of experiment: Dose Response confirmation of uHTS hits for small molecule antagonists of the CRF-binding protein and CRF-R2 receptor complex. The note with it: read-out: IC50_Mean. The assay is classed as functional.

In assay [34] the target is T3, Corticotropin-releasing factor receptor 2/Corticotropin-releasing factor-binding protein. The assay is described as follows: activators of CRF receptor 2 with binding protein – uHTS hits, confirmation (AID 602473). The assay is classed as functional. As to conditions: read-out: EC50_Mean.
Assay [35] addresses Beta-galactosidase (Escherichia coli, UniProt Q8VNN2). The assay is described as follows: Dose response counterscreen for EBI2 assay utilizing the enzyme, b-galactosidase. In kind it is functional.

A word on the AC50: it is the midpoint of the concentration-response curve, whichever way the signal moves. For `Cn1cccc1/C=N/NC(=O)c1sc2cc(Cl)ccc2c1Cl`, in [1], the IC50 is > 100 µM (inactive). The AC50 in assay [2] was 43.7 µM (active).
As to `O=C(O)CSc1ncnc2scc(-c3ccccc3)c12`, the IC50 was 5.04 µM (active) in [3] and > 138 µM (inactive) in assay [4].
As to `O=C(Nc1ccc(F)cc1)N1CC(=O)N2[C@@H](CO)[C@H](c3ccc(-c4ccc(F)cc4)cc3)[C@@H]2C1`, the AC50 in [5] was 6.32 µM (active); in [6], 36.7 µM (active); in assay [7], 34.5 µM (active); in assay [8], 18.1 µM (active); in assay [9], 25.6 µM (active).
Turning to `Cc1ccc(C(=O)NCCC(=O)N[C@@H]2CCCc3ccccc32)cc1`, the AC50 in [10] is 6.22 µM (active); in [11], > 52 µM (inactive).
Consider `CN1CCN(C(=O)c2cccc(-c3cnc4cnc(-c5ccccc5Oc5ccccc5)cn34)c2)CC1`, for which the IC50 in [12] is 1.72 µM (active). In addition, the figures for the AC50 in assay [13], in assay [14] and in assay [15] were 47.8 µM (active), > 52 µM (inactive) and 5.86 µM (active), respectively.
Take `CC(C)(C)[C@H]1CCC(=O)N([C@H](CSc2ccccc2)Cc2ccccc2)CC1`: the EC50 in assay [16] is 7.1 µM (active); in assay [17], 23.2 µM (active); in [18], 10.3 µM (active). Moreover, in [19], the AC50 is > 52 µM (inactive).
Take `CC(C(=O)Nc1ccncc1)N(c1ccccc1Cl)S(C)(=O)=O` (stereo not given): the EC50 in [20] was > 30 µM (inactive).
On to `O=c1c2ccccc2oc2cc(-c3ccc(CN4CCOCC4)cc3)ccc12`, for which, in assay [21], the AC50 is 26 µM (active).
On to `CCCC(=O)Nc1ccc(-c2csc(N/N=C\c3ccncc3)n2)cc1`, for which the EC50 in [22] and in assay [25] was > 29.9 µM (inactive) each time. Moreover, the IC50 in assay [23] is 9.3 µM (active); in assay [24], > 29.9 µM (inactive).
With `CCN1CCN(C(c2nc3ncc([N+](=O)[O-])cc3c(=O)n2-c2ccccc2)C(c2nc3ncc([N+](=O)[O-])cc3c(=O)n2-c2ccccc2)N2CCN(CC)CC2)CC1` (stereo not given), the IC50 in assay [26] was 6.57 µM (active).
In the case of `OC[C@@H]1CN(Cc2ccc(-c3ccccc3)cc2)C[C@H](n2cnc3c(NC4CCCC4)ncnc32)O1`, the IC50 was 0.349 µM (active) in [27] and 6.28 µM (active) in assay [29]. The EC50 in assay [28] is > 29.9 µM (inactive).
As to `COc1ccc(C#Cc2ccc(C(=O)N3CCCC(=O)C3)cc2)cc1`, the IC50 in [30] worked out at 2.71 µM.
As to `CN1CCSc2ccc(C(=O)NCc3cccc(F)c3)cc21`, in assay [31], the EC50 was > 69.5 µM (inactive).
With `COC(=O)c1cccc(OCc2cc(C(=O)N(C)C(C)c3ccccn3)no2)c1` (stereo not given), the IC50 in assay [32] was 11.1 µM (active).
Take `CSc1ccc(/C=C/C(=O)N2CCN(c3ccccn3)CC2)cc1`: the IC50 in [33] is > 47.1 µM (inactive); in assay [35], > 80 µM (inactive). In [34], the EC50 was > 53 µM (inactive).
